Biological target: Serine/threonine-protein kinase ATR (Homo sapiens, UniProt Q13535)
Assay: Inhibition Assay: Compounds were screened for their ability to inhibit ATR kinase using a radioactive-phosphate incorporation assay. Assays were carried out in a mixture of 50 mM Tris/HCl (pH 7.5), 10 mM MgCl2 and 1 mM DTT. Final substrate concentrations were 10 Î¼M [Î³-33P]ATP (3mCi 33P ATP/mmol ATP, Perkin Elmer) and 800 Î¼M target peptide (ASELPASQPQPFSAKKK).Assays were carried out at 25° C. in the presence of 5 nM full-length ATR. An assay stock buffer solution was prepared containing all of the reagents listed above, with the exception of ATP and the test compound of interest. 13.5 Î¼L of the stock solution was placed in a 96 well plate followed by addition of 2 Î¼L of DMSO stock containing serial dilutions of the test compound (typically starting from a final concentration of 15 Î¼M with 3-fold serial dilutions) in duplicate (final DMSO concentration 7%). The plate was pre-incubated for 10 minutes at 25° C. and the reaction initiated by addition of 15 Î¼L [Î³-33P]ATP.

Serine/threonine-protein kinase ATR, sequence (Q13535 whole entry): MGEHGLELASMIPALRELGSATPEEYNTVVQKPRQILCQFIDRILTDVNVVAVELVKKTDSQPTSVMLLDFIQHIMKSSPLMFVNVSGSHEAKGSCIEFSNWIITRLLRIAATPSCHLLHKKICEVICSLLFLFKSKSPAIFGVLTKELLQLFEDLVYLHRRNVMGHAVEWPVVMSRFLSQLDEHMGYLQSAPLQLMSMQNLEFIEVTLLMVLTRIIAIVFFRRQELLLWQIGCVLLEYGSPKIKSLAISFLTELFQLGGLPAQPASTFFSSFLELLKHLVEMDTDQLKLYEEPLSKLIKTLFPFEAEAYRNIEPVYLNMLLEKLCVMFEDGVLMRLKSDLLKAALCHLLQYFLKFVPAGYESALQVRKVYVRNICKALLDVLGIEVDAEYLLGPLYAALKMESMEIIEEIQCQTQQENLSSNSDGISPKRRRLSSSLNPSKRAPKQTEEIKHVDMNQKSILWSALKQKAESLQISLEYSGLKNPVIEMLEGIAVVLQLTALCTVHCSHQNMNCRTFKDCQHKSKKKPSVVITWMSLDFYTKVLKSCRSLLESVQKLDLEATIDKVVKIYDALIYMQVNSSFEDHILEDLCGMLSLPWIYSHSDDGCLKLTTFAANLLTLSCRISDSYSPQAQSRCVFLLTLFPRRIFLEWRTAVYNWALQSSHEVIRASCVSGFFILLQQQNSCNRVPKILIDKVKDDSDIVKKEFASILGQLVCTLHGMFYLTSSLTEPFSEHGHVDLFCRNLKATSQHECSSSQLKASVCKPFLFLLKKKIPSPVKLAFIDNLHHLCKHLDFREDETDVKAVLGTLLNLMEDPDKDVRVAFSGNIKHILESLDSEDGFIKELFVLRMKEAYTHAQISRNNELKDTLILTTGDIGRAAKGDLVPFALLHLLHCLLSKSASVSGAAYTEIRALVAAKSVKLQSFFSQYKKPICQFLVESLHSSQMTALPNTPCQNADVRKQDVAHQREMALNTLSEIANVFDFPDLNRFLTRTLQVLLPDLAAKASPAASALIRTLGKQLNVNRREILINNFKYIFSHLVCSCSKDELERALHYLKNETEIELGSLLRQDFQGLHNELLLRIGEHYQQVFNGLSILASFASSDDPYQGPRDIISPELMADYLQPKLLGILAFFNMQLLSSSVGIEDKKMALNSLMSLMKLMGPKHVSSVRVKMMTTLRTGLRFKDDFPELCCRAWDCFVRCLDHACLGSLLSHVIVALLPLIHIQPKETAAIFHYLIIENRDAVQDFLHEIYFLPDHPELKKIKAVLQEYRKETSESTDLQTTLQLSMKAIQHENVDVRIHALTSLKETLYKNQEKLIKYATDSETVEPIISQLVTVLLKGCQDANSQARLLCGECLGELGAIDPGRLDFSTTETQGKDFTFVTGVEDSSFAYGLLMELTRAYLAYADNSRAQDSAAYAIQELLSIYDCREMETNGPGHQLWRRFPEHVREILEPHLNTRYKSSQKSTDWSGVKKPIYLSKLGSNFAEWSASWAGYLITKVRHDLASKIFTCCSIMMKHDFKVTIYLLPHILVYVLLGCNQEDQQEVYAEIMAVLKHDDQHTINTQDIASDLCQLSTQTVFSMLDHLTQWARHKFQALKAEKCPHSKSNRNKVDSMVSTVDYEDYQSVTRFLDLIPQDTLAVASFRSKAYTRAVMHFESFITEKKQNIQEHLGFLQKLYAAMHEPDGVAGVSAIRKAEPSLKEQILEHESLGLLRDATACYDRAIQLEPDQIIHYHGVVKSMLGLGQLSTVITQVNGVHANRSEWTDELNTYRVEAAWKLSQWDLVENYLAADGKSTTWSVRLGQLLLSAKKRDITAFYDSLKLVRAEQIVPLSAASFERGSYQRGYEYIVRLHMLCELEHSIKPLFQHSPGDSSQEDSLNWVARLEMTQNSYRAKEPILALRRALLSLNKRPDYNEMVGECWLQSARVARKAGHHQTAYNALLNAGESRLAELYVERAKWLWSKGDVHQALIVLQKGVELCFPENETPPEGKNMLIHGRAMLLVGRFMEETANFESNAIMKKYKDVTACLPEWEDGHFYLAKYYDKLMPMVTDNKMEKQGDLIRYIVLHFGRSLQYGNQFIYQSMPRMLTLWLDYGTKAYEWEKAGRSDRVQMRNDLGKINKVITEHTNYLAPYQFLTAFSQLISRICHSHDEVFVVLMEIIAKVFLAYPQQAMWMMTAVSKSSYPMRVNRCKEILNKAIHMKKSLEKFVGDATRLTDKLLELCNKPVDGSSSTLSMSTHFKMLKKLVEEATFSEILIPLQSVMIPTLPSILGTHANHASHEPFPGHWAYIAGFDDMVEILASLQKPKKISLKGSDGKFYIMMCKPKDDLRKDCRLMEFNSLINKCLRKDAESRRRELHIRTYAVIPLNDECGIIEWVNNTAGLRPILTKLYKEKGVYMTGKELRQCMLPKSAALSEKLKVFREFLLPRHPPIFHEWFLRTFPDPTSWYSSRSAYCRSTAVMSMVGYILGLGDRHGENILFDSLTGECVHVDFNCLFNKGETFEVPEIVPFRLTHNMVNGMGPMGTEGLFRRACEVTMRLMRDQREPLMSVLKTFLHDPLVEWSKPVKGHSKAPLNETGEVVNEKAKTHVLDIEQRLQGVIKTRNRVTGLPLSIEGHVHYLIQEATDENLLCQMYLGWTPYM

CNCc1ccc(C2=NOC(c3nc(-c4ccc(S(=O)(=O)C(C)C)cc4)cnc3N)C2)cc1 (stereo unspecified)
Ki: 90 nM

Reference: ChEMBL document CHEMBL3638647, “Compounds useful as inhibitors of ATR kinase” (2014)
